Patent US10538554B2, “Peptides and uses therefor as antiviral agents” (priority 2015, dated 2020)
Bridge positions count the residues as written; N and C are the ends. Square brackets hold non-standard residues; d marks the D form. Peptide text beside a SMILES is read from it.

Assays:
[1] = test system: H9N2 A/Iran/16/2000; details: 48 h, 500 μM
[2] = test system: H3N8 A/Miami/2/63; details: A/Miami/2/63, 48 h, 500 μM
[3] = test system: H1N1 A1/Malaysia/302/1954; details: A1/Malaysia/302/1954, 48 h, 500 μM

Compound	% inhibition H9N2 [1]	% inhibition H3N8 [2]	% inhibition H1N1 [3]
C[C@H](O)[C@H]1NC(=O)[C@H](N)CSSC[C@H](C(=O)O)NC(=O)[C@@H](CC(N)=O)NC(=O)[C@@H](CCCCN)NC(=O)[C@@H](Cc2ccccc2)NC(=O)[C@@H](CCCNC(=N)N)NC(=O)[C@@H](CO)NC(=O)[C@@H](CCCCN)NC1=O [PSP 9, H-ctksrfknc-OH] (H-[dC][dT][dK][dS][dR][dF][dK][dN][dC]-OH; disulfide 1-9)	31.8%	62.9%	17.6%
C[C@H](O)[C@H]1NC(=O)[C@H](N)CSSC[C@H](C(=O)O)NC(=O)[C@@H](CC(N)=O)NC(=O)[C@@H](CC(N)=O)NC(=O)[C@@H](Cc2ccccc2)NC(=O)[C@@H](CCCNC(=N)N)NC(=O)[C@@H](CO)NC(=O)[C@@H](CCCCN)NC1=O [PSP 12, H-ctksrfnnc-OH] (H-[dC][dT][dK][dS][dR][dF][dN][dN][dC]-OH; disulfide 1-9)	27.3%	70.1%	32.7%
C[C@H](O)[C@H]1NC(=O)[C@H](N)CSSC[C@H](C(=O)O)NC(=O)[C@@H](CC(N)=O)NC(=O)[C@@H](CCC(N)=O)NC(=O)[C@@H](Cc2ccccc2)NC(=O)[C@@H](CCCNC(=N)N)NC(=O)[C@@H](CO)NC(=O)[C@@H](CCCCN)NC1=O [PSP 14, H-ctksrfqnc-OH] (H-[dC][dT][dK][dS][dR][dF][dQ][dN][dC]-OH; disulfide 1-9)	18.2%	62.9%	23.1%
C[C@H](O)[C@H]1NC(=O)[C@H](N)CSSC[C@H](C(=O)O)NC(=O)[C@@H](CC(N)=O)NC(=O)[C@@H](CO)NC(=O)[C@@H](Cc2ccccc2)NC(=O)[C@@H](CCCNC(=N)N)NC(=O)[C@@H](CO)NC(=O)[C@@H](CCCCN)NC1=O [PSP 16, H-ctksrfsnc-OH] (H-[dC][dT][dK][dS][dR][dF][dS][dN][dC]-OH; disulfide 1-9)	45.5%	71.1%	13.5%
C[C@H](O)[C@H]1NC(=O)[C@H](N)CSSC[C@H](C(=O)O)NC(=O)[C@@H](CC(N)=O)NC(=O)[C@@H]([C@H](C)O)NC(=O)[C@@H](Cc2ccccc2)NC(=O)[C@@H](CCCNC(=N)N)NC(=O)[C@@H](CO)NC(=O)[C@@H](CCCCN)NC1=O [PSP 17, H-ctksrftnc-OH] (H-[dC][dT][dK][dS][dR][dF][dT][dN][dC]-OH; disulfide 1-9)	9.1%	74.2%	30.8%
CC[C@@H](C)[C@H]1NC(=O)[C@@H](Cc2ccccc2)NC(=O)[C@@H](CCCNC(=N)N)NC(=O)[C@@H](CO)NC(=O)[C@@H](C)NC(=O)[C@@H]([C@H](C)O)NC(=O)[C@H](NC(=O)[C@@H](CCCCN)NC(=O)[C@@H](CCCCN)NC(=O)[C@@H](CCCNC(=N)N)NC(=O)[C@H](N)CCCNC(=N)N)CSSC[C@H](C(=O)O)NC(=O)[C@@H](CC(N)=O)NC1=O [PSP II A1, H-rrkkctasrfinc-OH] (H-[dR][dR][dK][dK][dC][dT][dA][dS][dR][dF][dI][dN][dC]-OH; disulfide 5-13)	40%	25.9%	
CC[C@@H](C)[C@H]1NC(=O)[C@@H](Cc2ccccc2)NC(=O)[C@@H](CCCNC(=N)N)NC(=O)[C@@H](CO)NC(=O)[C@@H](CC(=O)O)NC(=O)[C@@H]([C@H](C)O)NC(=O)[C@H](NC(=O)[C@@H](CCCCN)NC(=O)[C@@H](CCCCN)NC(=O)[C@@H](CCCNC(=N)N)NC(=O)[C@H](N)CCCNC(=N)N)CSSC[C@H](C(=O)O)NC(=O)[C@@H](CC(N)=O)NC1=O [PSP II A3, H-rrkkctdsrfinc-OH] (H-[dR][dR][dK][dK][dC][dT][dD][dS][dR][dF][dI][dN][dC]-OH; disulfide 5-13)	40%	85.2%	44.8%
CC[C@@H](C)[C@H]1NC(=O)[C@@H](Cc2ccccc2)NC(=O)[C@@H](CCCNC(=N)N)NC(=O)[C@@H](CO)NC(=O)[C@@H](CCC(=O)O)NC(=O)[C@@H]([C@H](C)O)NC(=O)[C@H](NC(=O)[C@@H](CCCCN)NC(=O)[C@@H](CCCCN)NC(=O)[C@@H](CCCNC(=N)N)NC(=O)[C@H](N)CCCNC(=N)N)CSSC[C@H](C(=O)O)NC(=O)[C@@H](CC(N)=O)NC1=O [PSP II A4, H-rrkkctesrfinc-OH] (H-[dR][dR][dK][dK][dC][dT][dE][dS][dR][dF][dI][dN][dC]-OH; disulfide 5-13)	60%	74.1%	36.2%
CC[C@@H](C)[C@H]1NC(=O)[C@@H](Cc2ccccc2)NC(=O)[C@@H](CCCNC(=N)N)NC(=O)[C@@H](CO)NC(=O)[C@@H](Cc2ccccc2)NC(=O)[C@@H]([C@H](C)O)NC(=O)[C@H](NC(=O)[C@@H](CCCCN)NC(=O)[C@@H](CCCCN)NC(=O)[C@@H](CCCNC(=N)N)NC(=O)[C@H](N)CCCNC(=N)N)CSSC[C@H](C(=O)O)NC(=O)[C@@H](CC(N)=O)NC1=O [PSP II A5, H-rrkkctfsrfinc-OH] (H-[dR][dR][dK][dK][dC][dT][dF][dS][dR][dF][dI][dN][dC]-OH; disulfide 5-13)	50%	100%	82.8%
CC[C@@H](C)[C@H]1NC(=O)[C@@H](Cc2ccccc2)NC(=O)[C@@H](CCCNC(=N)N)NC(=O)[C@@H](CO)NC(=O)CNC(=O)[C@@H]([C@H](C)O)NC(=O)[C@H](NC(=O)[C@@H](CCCCN)NC(=O)[C@@H](CCCCN)NC(=O)[C@@H](CCCNC(=N)N)NC(=O)[C@H](N)CCCNC(=N)N)CSSC[C@H](C(=O)O)NC(=O)[C@@H](CC(N)=O)NC1=O [PSP II A6, H-rrkkctGsrfinc-OH] (H-[dR][dR][dK][dK][dC][dT]G[dS][dR][dF][dI][dN][dC]-OH; disulfide 5-13)	20%	44.4%	1.7%
CC[C@@H](C)[C@H]1NC(=O)[C@@H](Cc2ccccc2)NC(=O)[C@@H](CCCNC(=N)N)NC(=O)[C@@H](CO)NC(=O)[C@@H](Cc2c[nH]cn2)NC(=O)[C@@H]([C@H](C)O)NC(=O)[C@H](NC(=O)[C@@H](CCCCN)NC(=O)[C@@H](CCCCN)NC(=O)[C@@H](CCCNC(=N)N)NC(=O)[C@H](N)CCCNC(=N)N)CSSC[C@H](C(=O)O)NC(=O)[C@@H](CC(N)=O)NC1=O [PSP II A7, H-rrkkcthsrfinc-OH] (H-[dR][dR][dK][dK][dC][dT][dH][dS][dR][dF][dI][dN][dC]-OH; disulfide 5-13)	50%	81.5%	71%
CC[C@@H](C)[C@H]1NC(=O)[C@@H](Cc2ccccc2)NC(=O)[C@@H](CCCNC(=N)N)NC(=O)[C@@H](CO)NC(=O)[C@@H]([C@H](C)CC)NC(=O)[C@@H]([C@H](C)O)NC(=O)[C@H](NC(=O)[C@@H](CCCCN)NC(=O)[C@@H](CCCCN)NC(=O)[C@@H](CCCNC(=N)N)NC(=O)[C@H](N)CCCNC(=N)N)CSSC[C@H](C(=O)O)NC(=O)[C@@H](CC(N)=O)NC1=O [PSP II A8, H-rrkkctisrfinc-OH] (H-[dR][dR][dK][dK][dC][dT][dI][dS][dR][dF][dI][dN][dC]-OH; disulfide 5-13)	20%	77.8%	75%
CC[C@@H](C)[C@H]1NC(=O)[C@@H](Cc2ccccc2)NC(=O)[C@@H](CCCNC(=N)N)NC(=O)[C@@H](CO)NC(=O)[C@@H](CCCCN)NC(=O)[C@@H]([C@H](C)O)NC(=O)[C@H](NC(=O)[C@@H](CCCCN)NC(=O)[C@@H](CCCCN)NC(=O)[C@@H](CCCNC(=N)N)NC(=O)[C@H](N)CCCNC(=N)N)CSSC[C@H](C(=O)O)NC(=O)[C@@H](CC(N)=O)NC1=O [PSP II A9, H-rrkkctksrfinc-OH] (H-[dR][dR][dK][dK][dC][dT][dK][dS][dR][dF][dI][dN][dC]-OH; disulfide 5-13)	50%	77.8%	81%
CC[C@@H](C)[C@H]1NC(=O)[C@@H](Cc2ccccc2)NC(=O)[C@@H](CCCNC(=N)N)NC(=O)[C@@H](CO)NC(=O)[C@@H](CC(C)C)NC(=O)[C@@H]([C@H](C)O)NC(=O)[C@H](NC(=O)[C@@H](CCCCN)NC(=O)[C@@H](CCCCN)NC(=O)[C@@H](CCCNC(=N)N)NC(=O)[C@H](N)CCCNC(=N)N)CSSC[C@H](C(=O)O)NC(=O)[C@@H](CC(N)=O)NC1=O [PSP II A10, H-rrkkctisrfinc-OH] (H-[dR][dR][dK][dK][dC][dT][dL][dS][dR][dF][dI][dN][dC]-OH; disulfide 5-13)	40%	88.9%	63.5%
CC[C@@H](C)[C@H]1NC(=O)[C@@H](Cc2ccccc2)NC(=O)[C@@H](CCCNC(=N)N)NC(=O)[C@@H](CO)NC(=O)[C@@H](CCSC)NC(=O)[C@@H]([C@H](C)O)NC(=O)[C@H](NC(=O)[C@@H](CCCCN)NC(=O)[C@@H](CCCCN)NC(=O)[C@@H](CCCNC(=N)N)NC(=O)[C@H](N)CCCNC(=N)N)CSSC[C@H](C(=O)O)NC(=O)[C@@H](CC(N)=O)NC1=O [PSP II A11, H-rrkkctmsrfinc-OH] (H-[dR][dR][dK][dK][dC][dT][dM][dS][dR][dF][dI][dN][dC]-OH; disulfide 5-13)	40%	76.5%	65.4%
CC[C@@H](C)[C@H]1NC(=O)[C@@H](Cc2ccccc2)NC(=O)[C@@H](CCCNC(=N)N)NC(=O)[C@@H](CO)NC(=O)[C@H]2CCCN2C(=O)[C@@H]([C@H](C)O)NC(=O)[C@H](NC(=O)[C@@H](CCCCN)NC(=O)[C@@H](CCCCN)NC(=O)[C@@H](CCCNC(=N)N)NC(=O)[C@H](N)CCCNC(=N)N)CSSC[C@H](C(=O)O)NC(=O)[C@@H](CC(N)=O)NC1=O [PSP II A13, H-rrkkctpsrfinc-OH] (H-[dR][dR][dK][dK][dC][dT][dP][dS][dR][dF][dI][dN][dC]-OH; disulfide 5-13)	70%	97%	86.5%
